From ChEMBL document CHEMBL1201862, “PubChem BioAssay data set” (2004)
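In this assay, cells in 96-well plates receive the compound at five concentrations for 48 hours. Endpoints are linearly interpolated between the surrounding concentrations. Here, GI50 denotes the concentration required for 50% inhibition of growth.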 Activity calls are given as the source filed them. Cut-off read from the data, not from the text of the source: active = GI50 up to about 1.1 µM and inactive = higher.

What was measured:
Assay in all cases: NCI anticancer screen, dose series, 48 h
[1] = tested on: 786-0
[2] = tested on: A498
[3] = tested on: A549
[4] = tested on: ACHN
[5] = tested on: CAKI-1
[6] = tested on: DLD-1
[7] = tested on: DMS-114
[8] = tested on: HCC 2998
[9] = tested on: HCT-116
[10] = tested on: HCT-15
[11] = tested on: HL-60
[12] = tested on: HOP-18
[13] = tested on: HOP-62
[14] = tested on: HOP-92
[15] = tested on: HT-29
[16] = tested on: KM12
[17] = tested on: LOX IMVI
[18] = tested on: LXFL 529
[19] = tested on: M14
[20] = tested on: MOLT-4
[21] = tested on: Malme-3M
[22] = tested on: NCI-H226
[23] = tested on: NCI-H23
[24] = tested on: NCI-H460
[25] = tested on: NCI-H522
[26] = tested on: OVCAR-4
[27] = tested on: OVCAR-5
[28] = tested on: RPMI-8226
[29] = tested on: RXF 393
[30] = tested on: SF-268
[31] = tested on: SF-295
[32] = tested on: SK-MEL-28
[33] = tested on: SK-MEL-2
[34] = tested on: SK-MEL-5
[35] = tested on: SK-OV-3
[36] = tested on: SN12C
[37] = tested on: SNB-19
[38] = tested on: SNB-75
[39] = tested on: SNB-78
[40] = tested on: SR
[41] = tested on: SW-620
[42] = tested on: TK-10
[43] = tested on: U-251
[44] = tested on: UACC-257
[45] = tested on: XF498
[46] = tested on: CCRF-CEM
[47] = tested on: COLO 205
[48] = tested on: DMS-273
[49] = tested on: IGROV-1
[50] = tested on: K562
[51] = tested on: M19-MEL
[52] = tested on: SF-539
[53] = tested on: UACC-62
[54] = tested on: UO-31
[55] = tested on: EKVX
[56] = tested on: KM-20L2
[57] = tested on: OVCAR-3
[58] = tested on: OVCAR-8

What does the source list for CC1=C(C#N)C(=O)CC(c2ccc(Cl)cc2)N(C)N1 (stereo not drawn)?
GI50 [1]: > 100 µM (inactive); GI50 [2]: > 100 µM (inactive); GI50 [3]: > 100 µM (inactive); GI50 [4]: > 100 µM (inactive); GI50 [5]: > 100 µM (inactive); GI50 [6]: > 100 µM (inactive); GI50 [7]: > 100 µM (inactive); GI50 [8]: > 100 µM (inactive); GI50 [9]: > 100 µM (inactive); GI50 [10]: > 100 µM; GI50 [11]: > 100 µM (inactive); GI50 [12]: 24.4 µM (inactive); GI50 [13]: > 100 µM (inactive); GI50 [14]: > 100 µM (inactive); GI50 [15]: > 100 µM (inactive); GI50 [16]: > 100 µM (inactive); GI50 [17]: > 100 µM (inactive); GI50 [18]: > 100 µM (inactive); GI50 [19]: > 100 µM (inactive); GI50 [20]: > 100 µM (inactive); GI50 [21]: > 100 µM (inactive); GI50 [22]: > 100 µM (inactive); GI50 [23]: > 100 µM (inactive); GI50 [24]: > 100 µM (inactive); GI50 [25]: > 100 µM (inactive); GI50 [26]: > 100 µM (inactive); GI50 [27]: > 100 µM (inactive); GI50 [28]: > 100 µM (inactive); GI50 [29]: > 100 µM (inactive); GI50 [30]: > 100 µM (inactive); GI50 [31]: > 100 µM (inactive); GI50 [32]: > 100 µM (inactive); GI50 [33]: > 100 µM (inactive); GI50 [34]: > 100 µM (inactive); GI50 [35]: > 100 µM (inactive); GI50 [36]: > 100 µM (inactive); GI50 [37]: > 100 µM (inactive); GI50 [38]: > 100 µM (inactive); GI50 [39]: > 100 µM (inactive); GI50 [40]: > 100 µM (inactive); GI50 [41]: > 100 µM (inactive); GI50 [42]: > 100 µM (inactive); GI50 [43]: > 100 µM (inactive); GI50 [44]: > 100 µM (inactive); GI50 [45]: > 100 µM (inactive)

With CCNC1CC(n2cc(C)c(=O)[nH]c2=O)OC1CO (stereo not drawn) as the molecule, how does the GI50 [1] read?
Its GI50 is > 100 µM (inactive).

And the GI50 [2]?
The GI50 was > 100 µM (inactive).

What about the GI50 [5] of the same molecule?
Its GI50 is > 100 µM (inactive).

And the GI50 [46]?
The GI50 was > 100 µM (inactive).

What about the GI50 [47] of the same molecule?
The GI50 was > 100 µM (inactive).

And the GI50 [6]?
The GI50 was > 100 µM (inactive).

What about the GI50 [7] of the same molecule?
Its GI50 is > 100 µM (inactive).

What about the GI50 [48] of the same molecule?
Its GI50 is > 100 µM (inactive).

What about the GI50 [8] of the same molecule?
Its GI50 is > 100 µM (inactive).

And the GI50 [9]?
The GI50 was > 100 µM (inactive).

What about the GI50 [11] of the same molecule?
The GI50 was > 100 µM (inactive).

And the GI50 [13]?
Its GI50 is > 100 µM (inactive).

And the GI50 [14]?
The GI50 was > 100 µM (inactive).

And the GI50 [49]?
The GI50 was > 100 µM (inactive).

What about the GI50 [50] of the same molecule?
Its GI50 is > 100 µM (inactive).

What about the GI50 [18] of the same molecule?
Its GI50 is > 100 µM (inactive).

What about the GI50 [19] of the same molecule?
Its GI50 is > 100 µM (inactive).

And the GI50 [51]?
The GI50 was > 100 µM (inactive).

What about the GI50 [20] of the same molecule?
Its GI50 is > 100 µM (inactive).

What about the GI50 [21] of the same molecule?
The GI50 was > 100 µM (inactive).

And the GI50 [22]?
The GI50 was > 100 µM (inactive).

What about the GI50 [23] of the same molecule?
Its GI50 is > 100 µM (inactive).

And the GI50 [24]?
Its GI50 is > 100 µM (inactive).

What about the GI50 [25] of the same molecule?
The GI50 was > 100 µM (inactive).

And the GI50 [26]?
Its GI50 is > 100 µM (inactive).

What about the GI50 [28] of the same molecule?
Its GI50 is > 100 µM (inactive).

What about the GI50 [30] of the same molecule?
Its GI50 is > 100 µM (inactive).

And the GI50 [52]?
Its GI50 is > 100 µM (inactive).

What about the GI50 [32] of the same molecule?
The GI50 was > 100 µM (inactive).

What about the GI50 [33] of the same molecule?
Its GI50 is > 100 µM (inactive).

And the GI50 [35]?
The GI50 was > 100 µM (inactive).

And the GI50 [36]?
Its GI50 is > 100 µM (inactive).

And the GI50 [38]?
The GI50 was > 100 µM (inactive).

What about the GI50 [39] of the same molecule?
The GI50 was > 100 µM (inactive).

And the GI50 [40]?
Its GI50 is > 100 µM (inactive).

And the GI50 [53]?
Its GI50 is > 100 µM (inactive).

What about the GI50 [54] of the same molecule?
Its GI50 is > 100 µM (inactive).

And the GI50 [45]?
Its GI50 is > 100 µM (inactive).

Which results are given for O=C(Nc1ccccc1)OCc1nc2c([nH]1)C(=O)C=CC2=O?
GI50 [1]: 18.3 µM (inactive); GI50 [2]: 16.2 µM (inactive); GI50 [3]: 16.4 µM (inactive); GI50 [4]: 12.6 µM (inactive); GI50 [5]: 0.35 µM (active); GI50 [46]: 3.34 µM (inactive); GI50 [47]: 1.9 µM (inactive); GI50 [6]: > 100 µM (inactive); GI50 [48]: 24.2 µM (inactive); GI50 [55]: 20.7 µM (inactive); GI50 [8]: 16.5 µM (inactive); GI50 [9]: 14.9 µM (inactive); GI50 [10]: 18.2 µM; GI50 [11]: 3.29 µM (inactive); GI50 [12]: 10.5 µM (inactive); GI50 [13]: > 100 µM (inactive); GI50 [14]: 24.6 µM (inactive); GI50 [15]: 27.5 µM (inactive); GI50 [49]: 16.9 µM (inactive); GI50 [50]: 2.55 µM (inactive); GI50 [56]: 19.4 µM (inactive); GI50 [16]: 15.6 µM (inactive); GI50 [17]: 16.1 µM (inactive); GI50 [18]: 3.1 µM (inactive); GI50 [19]: 16 µM (inactive); GI50 [51]: 16 µM (inactive); GI50 [20]: 2.32 µM (inactive); GI50 [21]: 6.4 µM (inactive); GI50 [22]: 18.7 µM (inactive); GI50 [23]: 19.4 µM (inactive); GI50 [24]: 19.8 µM (inactive); GI50 [57]: 16.7 µM (inactive); GI50 [26]: 14.3 µM (inactive); GI50 [27]: 22.2 µM (inactive); GI50 [58]: 15.5 µM (inactive); GI50 [28]: 18.7 µM (inactive); GI50 [29]: 10.8 µM (inactive); GI50 [31]: 18.6 µM (inactive); GI50 [52]: > 100 µM (inactive); GI50 [32]: 15.6 µM (inactive); GI50 [33]: 19.8 µM (inactive); GI50 [34]: 14.3 µM (inactive); GI50 [35]: 15.9 µM (inactive); GI50 [36]: 17.2 µM (inactive); GI50 [37]: 13.8 µM (inactive); GI50 [38]: 19.3 µM (inactive); GI50 [39]: 23.2 µM (inactive); GI50 [40]: 19.5 µM (inactive); GI50 [41]: 2.62 µM (inactive); GI50 [42]: 14 µM (inactive); GI50 [43]: 12.5 µM (inactive); GI50 [44]: 3.42 µM (inactive); GI50 [53]: 19.7 µM (inactive); GI50 [54]: 16.8 µM (inactive); GI50 [45]: 17.2 µM (inactive)
